Values quoted from earlier work, collected in US20030199483A1, “Aldosterone receptor antagonist and alpha-adrenergic modulating agent combination therapy for prevention or treatment of pathogenic conditions” (priority 2002, published 2003).

Tested on: myocardial fibrosis in animal models

CC(=O)S[C@@H]1CC2=CC(=O)CC[C@]2(C)[C@H]2CC[C@@]3(C)[C@@H](CC[C@@]34CCC(=O)O4)[C@H]12 [spironolactone, 17-hydroxy-7α-mercapto-3-oxo-17α-pregn-4-ene-21-carboxylic acid γ-lactone acetate]
myocardial fibrosis (D. Klug et al 1993): prevents myocardial fibrosis | fibrosis (irrespective of the development of left ventricular hypertrophy and the presence of hypertension, C. G. Brilla et al 1993): prevent fibrosis
